# pEC50, pIC50, pKi: −log10 of the molar value.
# Key:
# [1] = target: Glutamate receptor ionotropic, AMPA (Rattus norvegicus, UniProt P19490+P19491+P19492+P19493); assay: Binding affinity towards Ionotropic glutamate receptor AMPA; assay type: protein-complex assay
# [2] = target: Glutamate receptor ionotropic, kainate; assay: Binding affinity towards Ionotropic glutamate receptor kainate; assay type: protein-complex assay
# [3] = target: T1, Metabotropic glutamate receptor 2 (Homo sapiens, UniProt Q14416); assay: Concentration required for the half-maximal inhibition of cAMP […] in BHK cells expressing mGluR2; assay type: functional, cell-based
# T1 sequence (Q14416 whole entry): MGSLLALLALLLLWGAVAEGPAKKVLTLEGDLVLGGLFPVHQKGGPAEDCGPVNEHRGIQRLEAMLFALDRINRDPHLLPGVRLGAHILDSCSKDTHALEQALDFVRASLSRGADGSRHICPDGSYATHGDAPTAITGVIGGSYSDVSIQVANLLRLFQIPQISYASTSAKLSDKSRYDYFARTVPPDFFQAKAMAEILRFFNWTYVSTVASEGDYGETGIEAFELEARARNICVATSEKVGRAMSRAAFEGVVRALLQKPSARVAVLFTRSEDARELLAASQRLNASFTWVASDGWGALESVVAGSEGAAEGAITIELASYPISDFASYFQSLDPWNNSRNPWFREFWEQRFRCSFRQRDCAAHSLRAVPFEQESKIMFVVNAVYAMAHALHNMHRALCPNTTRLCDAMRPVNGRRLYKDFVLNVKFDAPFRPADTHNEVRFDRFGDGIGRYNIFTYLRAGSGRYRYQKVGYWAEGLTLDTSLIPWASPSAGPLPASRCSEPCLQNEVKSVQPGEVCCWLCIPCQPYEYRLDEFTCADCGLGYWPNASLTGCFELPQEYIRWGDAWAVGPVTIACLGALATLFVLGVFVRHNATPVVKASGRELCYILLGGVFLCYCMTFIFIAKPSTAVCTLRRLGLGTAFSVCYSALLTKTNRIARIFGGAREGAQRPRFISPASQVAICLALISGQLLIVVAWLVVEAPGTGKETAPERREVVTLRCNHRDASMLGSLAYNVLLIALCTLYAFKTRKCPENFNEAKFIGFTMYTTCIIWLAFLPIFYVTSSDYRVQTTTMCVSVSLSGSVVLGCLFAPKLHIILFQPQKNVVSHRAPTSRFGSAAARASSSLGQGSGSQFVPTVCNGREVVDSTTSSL
# [4] = target: T1, Metabotropic glutamate receptor 2; assay: Effective concentration forskolin-stimulated cAMP formation in BHK cells expressing mGluR2 receptor; assay type: functional, cell-based
# [5] = target: Glutamate NMDA receptor; assay: Binding affinity towards Ionotropic glutamate receptor NMDA; assay type: protein-complex assay
# [6] = Inhibitory concentration towards calcium/chloride-dependent glutamate transport into synaptosomes; assay type: functional, subcellular, Rattus norvegicus, Brain
# [7] = Inhibitory concentration towards the sodium dependent glutamate transport into synaptosomes.; assay type: functional, subcellular, Brain
# [8] = target: T1, Metabotropic glutamate receptor 2; assay: Antagonistic activity against mGluR2 was determined; assay type: functional
# [9] = target: Metabotropic glutamate receptor 1 (Homo sapiens, UniProt Q13255); assay: Binding affinity towards mGluR1a was determined
# Sequence of Metabotropic glutamate receptor 1 (Q13255 whole entry): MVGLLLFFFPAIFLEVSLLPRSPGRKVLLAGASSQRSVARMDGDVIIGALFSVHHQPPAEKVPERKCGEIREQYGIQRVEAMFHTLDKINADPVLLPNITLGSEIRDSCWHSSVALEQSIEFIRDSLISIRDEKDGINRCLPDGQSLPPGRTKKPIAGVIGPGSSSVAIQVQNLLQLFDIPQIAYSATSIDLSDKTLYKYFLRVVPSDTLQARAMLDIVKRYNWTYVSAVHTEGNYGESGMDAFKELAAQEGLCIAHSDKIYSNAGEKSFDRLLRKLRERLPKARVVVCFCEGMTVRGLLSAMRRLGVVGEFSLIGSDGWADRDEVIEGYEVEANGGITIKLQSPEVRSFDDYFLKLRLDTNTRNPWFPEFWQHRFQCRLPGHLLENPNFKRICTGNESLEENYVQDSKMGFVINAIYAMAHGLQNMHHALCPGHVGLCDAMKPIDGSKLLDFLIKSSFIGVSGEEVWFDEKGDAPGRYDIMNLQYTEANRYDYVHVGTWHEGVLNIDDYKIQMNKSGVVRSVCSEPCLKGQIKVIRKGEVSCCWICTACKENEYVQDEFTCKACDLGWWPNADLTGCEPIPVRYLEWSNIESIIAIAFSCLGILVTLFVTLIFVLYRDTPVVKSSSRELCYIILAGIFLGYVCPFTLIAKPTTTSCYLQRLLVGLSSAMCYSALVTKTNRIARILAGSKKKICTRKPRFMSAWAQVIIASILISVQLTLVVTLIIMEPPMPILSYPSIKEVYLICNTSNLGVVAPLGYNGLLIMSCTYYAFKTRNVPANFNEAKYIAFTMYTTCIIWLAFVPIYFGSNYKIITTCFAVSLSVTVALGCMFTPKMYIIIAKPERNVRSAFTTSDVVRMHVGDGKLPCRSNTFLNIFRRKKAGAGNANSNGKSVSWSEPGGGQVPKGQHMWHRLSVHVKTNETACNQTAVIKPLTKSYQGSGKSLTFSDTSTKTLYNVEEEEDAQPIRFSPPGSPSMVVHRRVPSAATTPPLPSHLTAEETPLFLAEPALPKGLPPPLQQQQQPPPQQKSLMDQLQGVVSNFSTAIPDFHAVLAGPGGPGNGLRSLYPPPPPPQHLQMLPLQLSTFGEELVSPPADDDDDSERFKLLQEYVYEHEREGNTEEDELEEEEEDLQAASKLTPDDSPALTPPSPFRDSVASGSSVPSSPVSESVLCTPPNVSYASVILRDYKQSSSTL
# [10] = target: T1, Metabotropic glutamate receptor 2; assay: Concentration required for the half-maximal inhibition of cAMP formation in BHK cells expressing mGluR2.; assay type: functional, cell-based
# [11] = target: T1, Metabotropic glutamate receptor 2; assay: Effective concentration of compound against forskolin-stimulated cAMP formation in BHK cells expressing mGluR2 receptor; assay type: functional, cell-based
# [12] = target: T1, Metabotropic glutamate receptor 2; assay: Concentration required for the half-maximal inhibition of cAMP formation in BHK cells expressing mGluR2; assay type: functional, cell-based
pKi [1],pKi [2],pIC50 [3],pEC50 [4],pKi [5],pIC50 [6],pIC50 [7],pIC50 [8],pKi [9],pIC50 [10],pEC50 [11],pIC50 [12],pIC50 ([3]; bhk),pEC50 ([4]; bhk),SMILES
< 3.66,< 3.72,< 3.52,< 3.52,4.54,3.86,< 3.52,–,–,–,–,–,–,–,N[C@@H](C(=O)O)[C@@H]1[C@@H](C(=O)O)[C@H]1c1ccccc1
–,–,–,–,–,–,–,4.30,4.30,–,–,–,–,–,CC(N)(C(=O)O)c1ccc(C(=O)O)cc1 (stereo not given)
< 3.66,< 3.72,< 3.52,< 3.52,< 3.70,3.63,< 3.52,–,–,–,–,–,–,–,N[C@H](C(=O)O)[C@H]1[C@@H](C(=O)O)[C@H]1c1ccccc1
< 3.66,3.93,< 3.52,< 3.52,< 3.70,4.49,< 3.52,–,–,–,–,–,–,–,N[C@@H](C(=O)O)[C@H]1[C@@H](C(=O)O)[C@H]1c1ccccc1
3.60,3.91,< 3.52,< 3.52,< 3.70,3.84,< 3.52,–,–,–,–,–,–,–,N[C@@H](C(=O)O)[C@@H]1[C@H](C(=O)O)[C@@H]1c1ccccc1
3.67,< 3.72,–,–,3.71,< 3.52,< 3.52,–,–,< 3.52,< 3.52,–,–,–,N[C@@H](C(=O)O)[C@@H]1[C@@H](C(=O)O)[C@@H]1c1ccccc1
< 3.52,< 3.72,< 3.52,< 3.52,< 3.70,4.64,< 3.52,–,–,–,–,–,–,–,N[C@@H](C(=O)O)[C@H]1[C@H](C(=O)O)[C@@H]1c1ccccc1
< 3.66,< 3.72,< 3.52,< 3.52,4.60,4.07,< 3.52,–,–,–,–,–,–,–,N[C@H](C(=O)O)[C@H]1[C@H](C(=O)O)[C@@H]1c1ccccc1
3.85,3.84,< 3.52,< 3.52,< 3.70,3.67,< 3.52,–,–,–,–,–,–,–,N[C@H](C(=O)O)[C@H]1[C@@H](C(=O)O)[C@@H]1c1ccccc1
3.80,3.81,< 3.52,< 3.52,3.91,4.19,< 3.52,–,–,–,–,–,–,–,N[C@@H](C(=O)O)[C@H]1[C@@H](C(=O)O)[C@@H]1c1ccccc1
3.90,4.82,–,3.91,3.89,< 3.52,< 3.52,–,–,–,–,–,–,–,N[C@@H](C(=O)O)[C@H]1[C@H](C(=O)O)[C@H]1c1ccccc1
< 3.66,< 3.72,< 3.52,< 3.52,< 3.70,< 3.52,< 3.52,–,–,–,–,–,–,–,N[C@@H](C(=O)O)[C@@H]1[C@H](C(=O)O)[C@H]1c1ccccc1 (stereo in doubt; 44)
< 3.66,< 3.72,5.10,–,< 3.70,< 3.52,< 3.52,–,–,–,–,–,–,–,N[C@H](C(=O)O)[C@@H]1[C@@H](C(=O)O)[C@@H]1c1ccccc1
< 3.66,3.90,< 3.52,< 3.52,3.72,5.15,< 3.52,–,–,–,–,–,–,–,N[C@H](C(=O)O)[C@@H]1[C@@H](C(=O)O)[C@H]1c1ccccc1
3.91,4.60,–,< 3.52,3.97,4.39,< 3.52,–,–,–,–,< 3.52,–,–,N[C@H](C(=O)O)[C@H]1[C@H](C(=O)O)[C@H]1c1ccccc1
3.55,3.66,–,–,–,3.73,–,–,–,–,–,–,< 3.52,< 3.52,N[C@@H](C(=O)O)[C@@H]1[C@H](C(=O)O)[C@H]1c1ccccc1 (stereo in doubt; 47)
< 3.66,3.81,< 3.52,< 3.52,< 3.70,3.57,< 3.52,–,–,–,–,–,–,–,N[C@H](C(=O)O)[C@@H]1[C@H](C(=O)O)[C@@H]1c1ccccc1

# From ChEMBL document CHEMBL1129330, “Synthesis and pharmacological characterization of all sixteen stereoisomers of 2-(2'-carboxy-3'-phenylcyclopropyl)glycine. Focus on (2S,1'S,2'S,3'R)-2-(2'-carboxy-3'-phenylcyclopropyl)glycine, a novel and selective group II metabotropic glutamate receptors antagonist” (J Med Chem, 1996)
